Measurements published in US6800652B2, “Diaryl compounds” (Pfizer Inc., priority 2002, dated 2004).
pIC50: −log10 of the molar value.

Experiments:
Type in all cases: cell-based
[1] = molecular target: T1, human serotonin transporter (hSERT) (Homo sapiens, UniProt P31645); experiment: Inhibition of 3H-serotonin uptake in HEK-293 cells stably transfected with hSERT; conditions: HEK-293 hSERT cells, 3H-5HT 50 nM, 5 min incubation, room temperature; read-out: SRI (serotonin re-uptake inhibition) IC50
T1 construct: expressed in transfected cells
T1 sequence (P31645 whole entry): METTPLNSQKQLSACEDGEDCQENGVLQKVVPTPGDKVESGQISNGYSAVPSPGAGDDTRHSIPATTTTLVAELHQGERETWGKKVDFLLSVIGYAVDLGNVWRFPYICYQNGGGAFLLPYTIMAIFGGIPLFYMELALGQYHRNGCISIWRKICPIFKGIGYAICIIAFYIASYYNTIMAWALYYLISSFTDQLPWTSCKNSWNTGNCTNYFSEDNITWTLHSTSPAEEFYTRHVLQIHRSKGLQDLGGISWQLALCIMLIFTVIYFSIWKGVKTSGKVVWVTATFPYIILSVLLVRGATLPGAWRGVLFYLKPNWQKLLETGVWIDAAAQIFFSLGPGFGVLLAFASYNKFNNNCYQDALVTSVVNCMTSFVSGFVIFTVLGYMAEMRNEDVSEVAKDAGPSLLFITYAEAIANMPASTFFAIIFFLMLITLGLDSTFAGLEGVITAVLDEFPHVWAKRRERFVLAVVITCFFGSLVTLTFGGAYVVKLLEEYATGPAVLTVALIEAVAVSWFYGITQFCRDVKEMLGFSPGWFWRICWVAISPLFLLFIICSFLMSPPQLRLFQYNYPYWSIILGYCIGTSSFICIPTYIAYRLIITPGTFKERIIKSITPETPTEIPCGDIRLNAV
Procedure: A number of compounds were tested for biological activity by their ability to inhibit the uptake of serotonin by human serotonin transporters as follows.
(§1) Human embryonic kidney cells (HEK-293) stably transfected with either the human serotonin transporter (hSERT), noradrenaline transporter (hNET) or dopamine transporter (hDAT) were cultured under standard cell culture techniques (cells were grown at 37° C. and 5% CO2 in DMEM-culture media (supplemented with 10% dialysed foetal calf serum (FCS), 2 mM I-glutamine and 250 μg/ml geneticin)). Cells were harvested for the assay to yield a cell suspension of 750,000 cells/ml.
(§2) All test compounds were dissolved in 100% DMSO and diluted down in assay buffer to give appropriate test concentrations. Assays were carried out in 96-well filter bottom plates. Cells (7500 cells/assay well) were pre-incubated in standard assay buffer containing either test compound, standard inhibitor or compound vehicle (1% DMSO) for 5 minutes. Reactions were started by addition of either ^3H-Serotonin, ^3H-Noradrenaline or ^3H-Dopamine substrates. All reactions were carried out at room temperature in a shaking incubator. […] The quantity of ^3H-substrate incorporated into the cells was then quantified.
(§3) Assay plates were dried in a microwave oven, scintillation fluid added, and radioactivity measured. […]

[2] = molecular target: T2, dopamine transporter (hDAT) (Homo sapiens, UniProt Q01959); experiment: Inhibition of 3H-dopamine uptake in HEK-293 cells stably transfected with hDAT; conditions: HEK-293 hDAT cells, 3H-Dopamine 200 nM, 5 min incubation, room temperature; read-out: DRI (dopamine re-uptake inhibition) IC50
T2 construct: expressed in transfected cells
T2 sequence (Q01959 whole entry): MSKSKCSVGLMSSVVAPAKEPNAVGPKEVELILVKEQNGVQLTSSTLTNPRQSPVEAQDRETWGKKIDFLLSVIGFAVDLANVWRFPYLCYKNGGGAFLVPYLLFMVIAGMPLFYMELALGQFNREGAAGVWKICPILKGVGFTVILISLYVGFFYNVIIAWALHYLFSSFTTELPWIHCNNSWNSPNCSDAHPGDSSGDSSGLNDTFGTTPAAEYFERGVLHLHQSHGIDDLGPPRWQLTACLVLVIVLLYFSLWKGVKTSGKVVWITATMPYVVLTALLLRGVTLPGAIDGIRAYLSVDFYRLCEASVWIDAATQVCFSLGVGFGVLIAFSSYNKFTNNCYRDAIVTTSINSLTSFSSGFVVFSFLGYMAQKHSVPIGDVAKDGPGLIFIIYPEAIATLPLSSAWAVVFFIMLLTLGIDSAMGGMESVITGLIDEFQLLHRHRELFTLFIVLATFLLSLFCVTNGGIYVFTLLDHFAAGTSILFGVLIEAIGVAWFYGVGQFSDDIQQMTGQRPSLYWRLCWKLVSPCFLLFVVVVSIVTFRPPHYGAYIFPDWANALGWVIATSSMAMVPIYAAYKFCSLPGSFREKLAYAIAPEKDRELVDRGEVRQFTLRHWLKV
Procedure: as §1
as §2, with “incubator. Incubation times were 5 minutes for the hSERT and hDAT assays and 15 minutes for the hNET assay.” for “incubator.”
as §3

[3] = molecular target: T3, noradrenaline transporter (hNET) (Homo sapiens, UniProt P23975); experiment: Inhibition of 3H-noradrenaline uptake in HEK-293 cells stably transfected with hNET; conditions: HEK-293 hNET cells, 3H-Noradrenaline 200 nM, 15 min incubation, room temperature; read-out: NRI (noradrenaline re-uptake inhibition) IC50
T3 construct: expressed in transfected cells
T3 sequence (P23975 whole entry): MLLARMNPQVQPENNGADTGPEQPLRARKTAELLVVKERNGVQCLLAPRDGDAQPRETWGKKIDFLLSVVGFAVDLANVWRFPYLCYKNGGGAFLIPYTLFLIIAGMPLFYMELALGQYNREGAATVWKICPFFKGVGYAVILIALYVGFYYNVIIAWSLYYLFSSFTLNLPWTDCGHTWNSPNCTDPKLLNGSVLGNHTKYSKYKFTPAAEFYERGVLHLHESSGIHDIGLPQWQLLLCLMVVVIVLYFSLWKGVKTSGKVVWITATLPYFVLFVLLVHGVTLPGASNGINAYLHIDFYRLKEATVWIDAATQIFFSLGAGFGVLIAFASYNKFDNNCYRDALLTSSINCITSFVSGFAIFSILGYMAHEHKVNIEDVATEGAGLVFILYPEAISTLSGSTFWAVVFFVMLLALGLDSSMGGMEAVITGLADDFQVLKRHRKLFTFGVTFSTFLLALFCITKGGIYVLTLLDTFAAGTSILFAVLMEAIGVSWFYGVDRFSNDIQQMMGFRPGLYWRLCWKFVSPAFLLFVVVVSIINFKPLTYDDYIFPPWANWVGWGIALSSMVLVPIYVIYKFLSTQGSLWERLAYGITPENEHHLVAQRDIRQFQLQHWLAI
Procedure: as §1
as §2, with “incubator. Incubation times were 5 minutes for the hSERT and hDAT assays and 15 minutes for the hNET assay.” for “incubator.”
as §3

pIC50 [1]: 8.66
pIC50 [2]: 4.93
pIC50 [3]: 6.25
SMILES: CSc1ccc(Sc2ccncc2CN(C)C)cc1 [Example 2, N,N-Dimethyl-N-[(4-{[4-(methylsulfanyl)phenyl]sulfanyl}-3-pyridinyl)methyl]amine]
